# Laboratory results from US20030181426A1, “Compositions and methods for treating pain using cyclooxygenase-1 inhibitors” (priority 2002, published 2003).
# Assays:
# [1] = tested on: chronic pain; assay: Intrathecal ketorolac in patients with chronic pain receiving spinal morphine (VAS); format: in vivo, humans
# Source text: This study focused on safety, but efficacy measures were obtained by having patients rate their pain using a visual analog scale (VAS) before, and at intervals after, intrathecal injection of ketorolac. Data are available from the first 6 patients in this open label study.
# [2] = tested on: COX-1 and COX-2; conditions: as known in the art / Warner, 1999; cited from earlier work
# [3] = tested on: tactile allodynia; assay: PSNL tactile allodynia, local and systemic ketorolac; format: in vivo, rats; conditions: for duration of reversal of tactile allodynia: disappeared by day 5; for tactile allodynia in the ipsilateral paw: three hours after injection
# Method: PSNL was performed as described above. […] Three rats in each group were also injected with normal saline to serve as controls. For all injections, rats were briefly anaesthetized by inhalation of 2-4% halothane/96% oxygen and air. Perineural injection was performed as previously described ([…] al. 1995). Briefly, the rat was held in lateral recumbency with the limb to be injected forming a right angle with a longitudinal axis of the trunk. The greater trochanter and ischial tuberosity were localized by palpation. On an imaginary line from the greater trochanter to the ischial tuberosity, about one third of the distance caudal to the greater trochanter, a 25-gauge injection needle was advanced from dorsolateral direction at a 45° angle until the tip encountered the ischium. A total volume of 0.2 mL was injected in a fanning motion along the path of the sciatic nerve.
# [4] = tested on: phosphorylated CREB; assay: pCREB immunoreactive cells in dorsal horn of PSNL rats; format: in vivo; conditions: for increased number of pCREB-IR cells in the ipsilateral dorsal horn: 5 days after injection, three weeks after PSNL
# Method: Quantitative analysis of the pCREB expression in the dorsal horn of PSNL rats receiving either saline or ketorolac intraplantar injection was conducted. […] However, no significant difference in the mean optical density in a fixed area occupied by pCREB-IR cells was detected between both sides of the dorsal horn.
# [5] = tested on: tactile allodynia; assay: Partial sciatic nerve ligation (PSNL) tactile allodynia, i.t. COX inhibitors; format: in vivo, Sprague-Dawley rats
# Source text: A Sprague-Dawley rats (Harlan Industries, Indianapolis, Ind., USA), weighing 200-250 g, were used in this study. All animal surgical procedures were in conformity with the Wake Forest University guidelines on the ethical use of animals and studies were approved by the Animal Care and Use Committee. Animals were implanted with intrathecal catheters according to the method described previously. (Yaksh TL, 1976). Briefly, under halothane anesthesia (2-4% in oxygen/air), animals were placed prone in a stereotaxic frame and a small incision was made at the back of the neck. A small puncture was made in the atlanto-occipital membrane of the cistema magna and a polyethylene catheter (PE-10, 7.5 cm) was inserted so that the caudal tip reached the lumbar enlargement of the spinal cord. The rostral end of the catheter was exteriorized at the top of the head and the wound was closed with sutures. Animals were allowed 4-5 days to recover from the surgery and those displaying signs of motor dysfunction (fore limb or hind limb paralysis) were excluded from the study. Rats were anesthetized with 2-4% halothane in oxygen-air. For partial […] nerve ligation (PSNL), the left sciatic nerve was exposed at the high thigh level and one-third to one-half of the nerve was ligated with silk suture (size 6) as previously described (Shir et al., 1991). Animals were maintained after surgery with ad libitum food and water on a 12-h light/dark cycle. All rats were allowed to recover for 4 weeks after PSNL. By then, tactile allodynia was well established in the ipsilateral hindpaw.
# [6] = Ketorolac concentration in cerebrospinal fluid (HPLC); format: in vivo, humans; conditions: for concentration at 60 min: human, other: intrathecal (lumbar puncture), lumbar CSF 60 min after injection
# Method: Escalation to the next dose was made only after review of side effects occurring at lower doses, with pre-defined stopping criteria. CSF samples were quantitatively extracted by C-18 reverse phase cartridge chromatography and eluted with acetonitrile. Concentrated eluates were injected on to a HPLC equipped with a Phenomenex 'Prodigy' C-18 reverse phase column (250 mm×4.6 mm). Peaks were detected with an Agilent Model 1100 UV detector set at a wavelength of 313. All unknowns, standards and controls contained an equal quantity of internal standard, 200 ng of indoprofen.
# [7] = intraplantar injection, vs saline injected rats, P<0.01
structure (smiles),measurement,setting,value
O=C(c1ccccc1)c1ccc2n1CCC2C(=O)O (stereo not drawn) [ketorolac],VAS pain,"[1]; beginning 1 hour after injection and lasting throughout the remaining 3 hours of observation, n=6",significantly reduced
same,adverse events,"[1]; i.t. 0.5 mg (5 patients) or 1.0 mg (1 patient), patients on spinal morphine",no significant adverse events
same,VAS pain after injection,[1]; n=6,3
same,VAS pain prior to injection,[1]; n=6,5
same,preference in inhibition of COX-1 and COX-2,[2],one of the most selective COX-1 antagonists
same,duration of reversal of tactile allodynia,[3]; 0.2 mL 0.5% intramuscular,3 days
same,tactile allodynia in the ipsilateral paw,[3]; 0.2 mL 0.5% intramuscular,reversed
same,duration of reversal of tactile allodynia,[3]; 0.2 mL 0.5% intraperitoneal,3 days
same,tactile allodynia in the ipsilateral paw,[3]; 0.2 mL 0.5% intraperitoneal,reversed
same,tactile allodynia in the ipsilateral hindpaw,"[3]; 0.2 mL 0.5% intraplantar, 3 weeks after PSNL, three hours to 5 days",reversed the tactile allodynia
same,antiallodynic effect,"[3]; 0.2 mL 0.5% peri-neural, 3 weeks after PSNL",slow onset of antiallodynic effect that was observed only 3 and 5 days after injection
same,increased number of pCREB-IR cells in the ipsilateral dorsal horn,[4]; intraplantar injection,dramatically reduced
same,"mean optical density of pCREB-IR cells, contralateral dorsal horn",[4]; [7],significantly decreased
same,"mean optical density of pCREB-IR cells, ipsilateral dorsal horn",[4]; [7],significantly decreased
same,number of pCREB-IR cells in the contralateral dorsal horn,"[4]; local injection, compared with saline injected PSNL rats",also decreased
same,increased number of pCREB-IR cells in the ipsilateral dorsal horn,[4]; peri-neural injection,dramatically reduced
same,duration of reversal of withdrawal threshold,[5]; 4 weeks after PSNL,6 days
same,"withdrawal threshold, ipsilateral hindpaw","[5]; 4 weeks after PSNL, two hours following injection",significantly reversed to pre-lesion baseline
same,"withdrawal threshold, ipsilateral hindpaw",[5]; eight days after injection,returned to the pre-injection level
same,dose dependence of lumbar CSF drug concentration,[6]; 60 min after injection,apparent plateau at the 1 and 2 mg doses
same,concentration at 60 min,"[6]; 0.5 mg, 0.50 mg i.t.",13400 ± 1200 ng/mL
same,concentration at 60 min,[6]; 0.25 mg i.t.,4600 ± 200 ng/mL
same,concentration at 60 min,[6]; 1.0 mg i.t.,30700 ± 8800 ng/mL
same,concentration at 60 min,[6]; 2.0 mg i.t.,33500 ± 5200 ng/mL
